Data as given in article PMC8210147, “Characterization of the MurT/GatD complex in Mycobacterium tuberculosis towards validating a novel anti-tubercular drug target” (JAC-Antimicrobial Resistance, 2021).

Target: Rv3712 (mycobacterial MurT) (Mycobacterium tuberculosis, UniProt I6Y4C7)
Sequence (I6Y4C7 entry or part of it): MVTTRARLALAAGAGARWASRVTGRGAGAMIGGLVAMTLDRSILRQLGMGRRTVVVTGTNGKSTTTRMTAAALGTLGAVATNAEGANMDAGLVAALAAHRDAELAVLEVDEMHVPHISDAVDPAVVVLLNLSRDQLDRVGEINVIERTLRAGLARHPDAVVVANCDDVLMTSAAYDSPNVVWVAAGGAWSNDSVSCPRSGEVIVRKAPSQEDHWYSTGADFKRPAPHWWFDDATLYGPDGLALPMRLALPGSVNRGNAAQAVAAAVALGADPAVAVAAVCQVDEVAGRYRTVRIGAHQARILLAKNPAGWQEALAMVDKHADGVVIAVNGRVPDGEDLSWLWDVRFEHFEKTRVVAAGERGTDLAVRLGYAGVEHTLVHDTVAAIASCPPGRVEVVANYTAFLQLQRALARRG

SMILES: Nc1ncnc2c1ncn2[C@@H]1O[C@H](COP(=O)(O)OP(=O)(O)OP(=O)(O)O)[C@@H](O)[C@H]1O [ATP]
- inorganic phosphate release (PiColorLock Gold), 30 min: Rv3712 was found to be an ATPase
